“Also recorded” adds a separate entry of the source.

Common to all, as to type: in vivo, rabbit
The subject of one data set is proteoglycan. The data set is described as follows: Histological observation, staining with safranin-O and image analysis. On the procedure: (§1) As animal specimens, groups of female white rabbits (weight: about 2.0 kg) were used, the number of the rabbits in each of the groups being 3. The rabbits were habituated to the environment for one week from the time of delivery. Thereafter, 0.1 mg/kg of medetomidine was subcutaneously injected into each of the rabbits, and 25 mg/kg of Ketalar was intramuscularly injected thereto. About each of the rabbit specimens subjected to the injection anesthesia, the left knee joint was shaved, and then disinfected. Thereafter, approaching from the outside of the knee joint, the articular capsule was opened and the knee joint was exposed completely by shifting the patella to the inside. With reference to the experiment of Tamai et al. (Carbohydrate Polymers, 2002, vol. 48, pp. 369-378), three holes of 2 mm in diameter and 4 mm in depth were bored with a hand-drill at the proximal trochlear groove, distal trochlear groove, and the medial trochlear ridge. Thereafter, the sites were sufficiently rinsed, and then the articular capsule was sutured with 3-0PDS (polydioxanone). […]
(§2) The left femur of each of the damaged models in Example 1 was recovered, and then fixed with a 10% neutral buffered formalin aqueous solution (formaldehyde solution). […] The number of pixels in which a target color tone occupied was measured. […]

Data set [1] can be described thus: Observation of side effects during fucoidan administration. As to conditions: 1 g fucoidan in 50 mL water every day by natural intake, 3 weeks, female white rabbits. The protocol:
From the day of the operation, initially every day, water (50 mL) in which 1 g of a fucoidan was dissolved were dosed to the rabbits in the fucoidan-administered group by natural intake. Thereafter, water was given to the rabbits to drink freely. This was continued for 3 weeks. Only water was given to the rabbits in the control group.

The subject of data set [2] is damaged models (holes bored at proximal trochlear groove, distal trochlear groove and medial trochlear ridge of left knee joint). The data set is described as follows: Macroscopic observation of the degree of healing in cartilage damaged models. The following applies: after 3 weeks. The protocol:
As animal specimens, groups of female white rabbits (weight: about 2.0 kg) were used, the number of the rabbits in each of the groups being 3. The rabbits were habituated to the environment for one week from the time of delivery. Thereafter, 0.1 mg/kg of medetomidine was subcutaneously injected into each of the rabbits, and 25 mg/kg of Ketalar was intramuscularly injected thereto. About each of the rabbit specimens subjected to the injection anesthesia, the left knee joint was shaved, and then disinfected. Thereafter, approaching from the outside of the knee joint, the articular capsule was opened and the knee joint was exposed completely by shifting the patella to the inside. With reference to the experiment of Tamai et al. (Carbohydrate Polymers, 2002, vol. 48, pp. 369-378), three holes of 2 mm in diameter and 4 mm in depth were bored with a hand-drill at the proximal trochlear groove, distal trochlear groove, and the medial trochlear ridge. Thereafter, the sites were sufficiently rinsed, and then the articular capsule was sutured with 3-0PDS (polydioxanone). The subcutaneous tissue and the skin were simultaneously sutured with stainless steel wires. […] The degree of healing of each of the damages was scored on the basis of Table 1, and evaluated. […] About each of the damaged model groups, the degree of healing was evaluated on the basis of the criterion in Example 2. […]

Another data set concerns glycosaminoglycan. The data set is described as follows: Histological observation, staining with alcian blue and image analysis. The protocol:
as §1, §2

The mark [3] stands for this setting: Example 3, FIG. 6, vs control group, t-test.

In the case of fucoidan, the “image analysis of safranin-O-stained images (proteoglycan)” value with proteoglycan (setting [3]) is recorded as “significantly higher value”. Further, the “safranin-O staining of repaired regions (proteoglycan content)” value with proteoglycan (Example 3, FIGS. 4 and 5, proximal and distal trochlear groove, microscope) was “a large amount of proteoglycan was contained”. Moreover, the “signs of side effects” value in data set [1] is “no signs of side effects”. Also, the “degree of healing (macroscopic observation)” value in data set [2] (Example 2, FIG. 1, vs control group) is reported as “many of the damages were satisfactorily cured; also recorded: good therapeutic results”. In addition, the “tissue in the damaged sites” value in data set [2] (Example 2, control filled with collagen fibers, fibroblasts) was “substituted with chondroblasts and cartilage tissues”. In addition, the “image analysis of alcian blue-stained images (glycosaminoglycan)” value in the data set with glycosaminoglycan (setting [3]) is “significantly higher value”. Moreover, in the data set on glycosaminoglycan (Example 3, FIGS. 2 and 3, proximal and distal trochlear groove, microscope), the “alcian blue staining of repaired regions (glycosaminoglycan content)” value was “a large amount of glycosaminoglycan was contained”.

The values are drawn from patent publication US9539280B2, “Cartilage production promoter and prophylactic or therapeutic agent for diseases associated with cartilage damage” (NATIONAL UNIVERSITY CORPORATION TOTTORI UNIVERSITY, priority 2009, dated 2017).
